Columns and labels:
[1] = test system: NeuN+ neurons; experiment: Fluorescence tracing of intranasal Alex546-Ins in rat brain sections; type: in vivo; conditions: rat brain sections after intranasal Alex546-Ins
[2] = monkeys, intranasal administration; ref Thorne et al., 2008; cited from earlier work

| Molecule | Cell type binding Alex546-Ins (NeuN double-immunostaining) [1] | Time of earliest detection in CSF [2] [min] |
| --- | --- | --- |
| Alexa Fluor 546-labeled insulin [Alex546-Ins] | on the membrane of NeuN^+ neurons | – |
| I^125-interferon-β1b (protein, UniProt P01574 22-187, looked up, variant C17S, I-125 radiolabel) Interferon beta: MSYNLLGFLQRSSNFQSQKLLWQLNGRLEYCLKDRMNFDIPEEIKQLQQFQKEDAALTIYEMLQNIFAIFRQDSSSTGWNETIVENLLANVYHQINHLKTVLEEKLEKEDFTRGKLMSSLHLKRYYGRILHYLKAKEYSHCAWTIVRVEILRNFYFINRLTGYLRN | – | ≤ 30 |
